The text below walks through data of patent US20140288044A1, “COMPOSITIONS AND THERAPEUTIC USES OF IKK-RELATED KINASE EPSILON AND TANKBINDING KINASE 1 INHIBITORS” (Alzheimer's Institute of America, Inc., priority 2011, published 2014).

Molecules are shown by their SMILES. Like-named read-outs stand apart in the source and are kept apart here.

One assay has as its target T1, IKKε (Homo sapiens, UniProt Q14164).
T1 construct: His-tag (in-house Sf9 preparation) or GST-tag (purchased Invitrogen preparation); these are alternatives, not both on one protein; host or cells: Sf9 cells
T1 sequence (Q14164 1-716): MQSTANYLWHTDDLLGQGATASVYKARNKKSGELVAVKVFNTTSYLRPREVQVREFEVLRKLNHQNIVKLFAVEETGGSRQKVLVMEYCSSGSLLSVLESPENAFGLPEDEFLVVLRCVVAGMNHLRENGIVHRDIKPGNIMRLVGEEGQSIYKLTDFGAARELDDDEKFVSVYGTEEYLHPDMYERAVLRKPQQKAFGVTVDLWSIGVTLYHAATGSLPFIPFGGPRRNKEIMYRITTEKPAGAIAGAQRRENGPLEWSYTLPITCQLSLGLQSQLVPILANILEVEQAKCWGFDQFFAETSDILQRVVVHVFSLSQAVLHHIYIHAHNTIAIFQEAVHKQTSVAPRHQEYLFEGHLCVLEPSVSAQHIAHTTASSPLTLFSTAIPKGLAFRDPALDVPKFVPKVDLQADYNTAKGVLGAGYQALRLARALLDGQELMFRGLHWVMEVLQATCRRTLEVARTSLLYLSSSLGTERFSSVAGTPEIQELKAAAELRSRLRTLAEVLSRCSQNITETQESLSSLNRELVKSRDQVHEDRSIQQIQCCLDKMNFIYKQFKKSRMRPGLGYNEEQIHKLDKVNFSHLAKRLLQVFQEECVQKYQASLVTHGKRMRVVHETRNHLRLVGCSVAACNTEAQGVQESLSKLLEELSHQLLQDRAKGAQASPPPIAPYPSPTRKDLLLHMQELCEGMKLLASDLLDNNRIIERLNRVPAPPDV
Put plainly: In-vitro IKKε kinase assay (radiolabelled ATP, filterplate). It counts as biochemical. Put shortly: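 His-tagged IKKε from Sf9 cells or GST-tagged IKKε, with myelin basic protein, casein or dephosphorylated casein as substrate and 32 μM ATP (2× Km) plus [γ^33]ATP. "Normal" assay used 0.1 μg/ml enzyme; "sensitized" used 0.015 μg/ml with dephosphorylated casein only. Stopped after 30–45 min with phosphoric acid; P-81 filter counts normalized to DMSO after background subtraction.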

Assay [1] relates to IKKε-mediated phosphorylation of IRF3. The assay is described as follows: ELISA for in-situ phosphorylation of IRF3 (phospho-Ser396) in HEK293T cells cotransfected with IRF3 and IKKε. It counts as cell-based. The conditions noted are these: Homo sapiens, HEK-293T, 20 h, HEK293T cells, 20 hours, read-out: IC50, in-situ IKKε-mediated phosphorylation of IRF3. Put shortly: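 HEK293T cells cotransfected with IRF3 and IKKε were treated with compound for 20 h, and lysates were assayed by ELISA for phospho-Ser396 IRF3, normalized to DMSO. Viability was checked in parallel by CellTiter-Glo. For TBK1, cells cotransfected with IRF7 and TBK1 were treated overnight and probed by Western blot for phospho-Ser477/Ser479 IRF7.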
Background: An ELISA detects its analyte on a solid surface through an enzyme-linked reagent.

The mark [2] stands for this setting: "sensitized" assay, read-out: IC50, inhibition of the kinase activity of IKKε.
[3] abbreviates: in-vitro IKKε kinase inhibition assays, given as 0.005 μM (5 nM), read-out: IKKε kinase inhibitory activity (IC50 value).
[4] abbreviates: range given from about 1 μM to about 250 nM.

On to `CNCc1ccc(Nc2nccc(-c3ccc(OC4CCOCC4)c(C#N)c3)n2)cn1` [Example Compound 52, 5-[2-({6-[(Methylamino)methyl]pyridin-3-yl}amino)pyrimidin-4-yl]-2-(tetrahydro-2H-pyran-4-yloxy)benzonitrile], for which the figures for the IC50 (at IKKε (setting [2]); on IKKε (setting [3]); in assay [1] (setting [4])) were under 5 nM, under 5 nM and 250 to 1000 nM, respectively.

In the case of `CC(=O)N(C)Cc1ccc(Nc2nccc(-c3ccc(OC4CCOCC4)c(C#N)c3)n2)cn1` [Example Compound 53, N-{[5-({4-[3-Cyano-4-(tetrahydro-2H-pyran-4-yloxy)phenyl]pyrimidin-2-yl}amino)pyridin-2-yl]methyl}-N-methylacetamide], the IC50 (in general, the concentration at which inhibition is half-maximal) was under 5 nM on IKKε (setting [3]) and 100 to 250 nM in assay [1].

Take `CN(CCS(C)(=O)=O)Cc1ccc(Nc2nccc(-c3ccc(OC4CCOCC4)c(C#N)c3)n2)cn1` [Example Compound 54, 5-(2-{[6-({Methyl[2-(methylsulfonyl)ethyl]amino}methyl)pyridin-3-yl]amino}pyrimidin-4-yl)-2-(tetrahydro-2H-pyran-4-yloxy)benzonitrile]: the results for the IC50 (at IKKε (setting [3]); in assay [1]) were under 5 nM and 100 to 250 nM, respectively.

Take `C[C@@H](O)C(=O)N(C)Cc1ccc(Nc2nccc(-c3ccc(OC4CCOCC4)c(C#N)c3)n2)cn1` [Example Compound 57, (2R)—N-{[5-({4-[3-Cyano-4-(tetrahydro-2H-pyran-4-yloxy)phenyl]pyrimidin-2-yl}amino)pyridin-2-yl]methyl}-2-hydroxy-N-methylpropanamide]: the half-inhibitory concentration (IC50) on IKKε (setting [3]) was under 5 nM; in assay [1] (setting [4]) it was 250 to 1000 nM.

On to `CN(Cc1ccc(Nc2nccc(-c3ccc(OC4CCOCC4)c(C#N)c3)n2)cn1)C(=O)CO` [Example Compound 58, N-{[5-({4-[3-Cyano-4-(tetrahydro-2H-pyran-4-yloxy)phenyl]pyrimidin-2-yl}amino)pyridin-2-yl]methyl}-2-hydroxy-N-methylacetamide], for which the values for the IC50 (on IKKε (setting [3]); in assay [1]) were under 5 nM and 100 to 250 nM, respectively.

Take `CN(Cc1ccc(Nc2nccc(-c3ccc(OC4CCOCC4)c(C#N)c3)n2)cn1)C(=O)C1(O)CC1` [Example Compound 59, N-{[5-({4-[3-Cyano-4-(tetrahydro-2H-pyran-4-yloxy)phenyl]pyrimidin-2-yl}amino)pyridin-2-yl]methyl}-1-hydroxy-N-methylcyclopropanecarboxamide]: the IC50 was under 5 nM at IKKε (setting [3]) and 250 to 1000 nM in assay [1] (setting [4]).

As to `CN(Cc1ccc(Nc2nccc(-c3ccc(OC4CCOCC4)c(C#N)c3)n2)cn1)C(=O)C1(N)CC1` [Example Compound 60, 1-Amino-N-{[5-({4-[3-cyano-4-(tetrahydro-2H-pyran-4-yloxy)phenyl]pyrimidin-2-yl}amino)pyridin-2-yl]methyl}-N-methylcyclopropanecarboxamide], the values for the half-maximal inhibitory concentration (IC50) (on IKKε (setting [3]); in assay [1]) were under 5 nM and 100 to 250 nM, respectively.

On to `CC(c1ccc(Nc2nccc(-c3ccc(OC4CCOCC4)c(C#N)c3)n2)cn1)N1CC(O)C1` (centres unmarked) [Example Compound 63, 5-[2-({6-[1-(3-Hydroxyazetidin-1-yl)ethyl]pyridin-3-yl}amino)pyrimidin-4-yl]-2-(tetrahydro-2H-pyran-4-yloxy)benzonitrile], for which the IC50 at IKKε (setting [3]) is under 5 nM; in assay [1], 100 to 250 nM.

With `N#Cc1cc(-c2ccnc(Nc3ccnc(CN4CC(O)C4)c3)n2)ccc1OC1CCOCC1` [Example Compound 70, 5-[2-({2-[(3-Hydroxyazetidin-1-yl)methyl]pyridin-4-yl}amino)pyrimidin-4-yl]-2-(tetrahydro-2H-pyran-4-yloxy)benzonitrile], the half-maximal inhibitory concentration (IC50) was under 5 nM at IKKε (setting [3]) and 250 to 1000 nM in assay [1] (setting [4]).

On to `N#Cc1cc(-c2ccnc(Nc3ccnc(CN4CCC(F)(F)C4)c3)n2)ccc1OC1CCOCC1` [Example Compound 71, 5-[2-({2-[(3,3-Difluoropyrrolidin-1-yl)methyl]pyridin-4-yl}amino)pyrimidin-4-yl]-2-(tetrahydro-2H-pyran-4-yloxy)benzonitrile], for which the IC50 at IKKε (setting [3]) is under 5 nM; in assay [1], under 100 nM.

Consider `N#Cc1cc(-c2ccnc(Nc3ccc(-n4ccnc4)nc3)n2)ccc1OC1CCOCC1` [Example Compound 75, 5-(2-{[6-(1H-Imidazol-1-yl)pyridin-3-yl]amino}pyrimidin-4-yl)-2-(tetrahydro-2H-pyran-4-yloxy)benzonitrile], for which the half-inhibitory concentration (IC50) is under 5 nM on IKKε (setting [3]) and under 100 nM in assay [1].

In the case of `N#Cc1cc(-c2ccnc(Nc3ccc(-n4cncn4)nc3)n2)ccc1OC1CCOCC1` [Example Compound 76, 2-(Tetrahydro-2H-pyran-4-yloxy)-5-(2-{[6-(1H-1,2,4-triazol-1-yl)pyridin-3-yl]amino}pyrimidin-4-yl)benzonitrile], the IC50 is under 5 nM at IKKε (setting [2]), under 5 nM on IKKε (setting [3]) and 100 to 250 nM in assay [1].

As to `Cn1cc(-c2ccc(Nc3nccc(-c4ccc(OC5CCOCC5)c(C#N)c4)n3)cn2)cn1` [Example Compound 77, 5-(2-{[6-(1-Methyl-1H-pyrazol-4-yl)pyridin-3-yl]amino}pyrimidin-4-yl)-2-(tetrahydro-2H-pyran-4-yloxy)benzonitrile], the 50% inhibitory concentration (IC50) at IKKε (setting [3]) was under 5 nM; in assay [1], under 100 nM.

For the compound `N#Cc1cc(-c2ccnc(Nc3ccc(-c4cn[nH]c4)nc3)n2)ccc1OC1CCOCC1` [Example Compound 78, 5-(2-{[6-(1H-Pyrazol-4-yl)pyridin-3-yl]amino}pyrimidin-4-yl)-2-(tetrahydro-2H-pyran-4-yloxy)benzonitrile], the half-maximal inhibitory concentration (IC50) at IKKε (setting [3]) is under 5 nM; in assay [1] it was under 100 nM.

For `N#Cc1cc(-c2ccnc(Nc3ccc(-c4cccnc4)nc3)n2)ccc1OC1CCOCC1` [Example Compound 79, 5-[2-(2,3′-Bipyridin-5-ylamino)pyrimidin-4-yl]-2-(tetrahydro-2H-pyran-4-yloxy)benzonitrile], the concentration for half-maximal inhibition (IC50) at IKKε (setting [2]) was under 5 nM; on IKKε (setting [3]), under 5 nM; in assay [1] (setting [4]), 250 to 1000 nM.

As for `COCCNc1ncc(-c2ccc(Nc3nccc(-c4ccc(OC5CCOCC5)c(C#N)c4)n3)cn2)cn1` [Example Compound 80, 5-{2-[(6-{2-[(2-Methoxyethyl)amino]pyrimidin-5-yl}pyridin-3-yl)amino]pyrimidin-4-yl}-2-(tetrahydro-2H-pyran-4-yloxy)benzonitrile], the IC50 at IKKε (setting [3]) is under 5 nM; in assay [1] it was under 100 nM.

For `Cn1cc(-c2cc(Nc3nccc(-c4ccc(OC5CCOCC5)c(C#N)c4)n3)ccn2)cn1` [Example Compound 82, 5-(2-{[2-(1-Methyl-1H-pyrazol-4-yl)pyridin-4-yl]amino}pyrimidin-4-yl)-2-(tetrahydro-2H-pyran-4-yloxy)benzonitrile], the IC50 is under 5 nM at IKKε (setting [2]), under 5 nM on IKKε (setting [3]) and under 100 nM in assay [1].

With `N#Cc1cc(-c2ccnc(Nc3ccnc(-c4cn[nH]c4)c3)n2)ccc1OC1CCOCC1` [Example Compound 83, 5-(2-{[2-(1H-Pyrazol-4-yl)pyridin-4-yl]amino}pyrimidin-4-yl)-2-(tetrahydro-2H-pyran-4-yloxy)benzonitrile], the IC50 at IKKε (setting [2]) is under 5 nM; on IKKε (setting [3]) it was under 5 nM; in assay [1] it was 100 to 250 nM.

As to `CN(C)C1CCN(c2ccc(Nc3nccc(-c4ccc(OC5CCOCC5)c(C#N)c4)n3)nn2)C1` (centres unmarked) [Example Compound 87, 5-[2-({6-[3-(Dimethylamino)pyrrolidin-1-yl]pyridazin-3-yl}amino)pyrimidin-4-yl]-2-(tetrahydro-2H-pyran-4-yloxy)benzonitrile], the figures for the IC50 (on IKKε (setting [2]); at IKKε (setting [3]); in assay [1] (setting [4])) were under 5 nM, under 5 nM and 250 to 1000 nM, respectively.

As for `N#Cc1cc(-c2ccnc(Nc3ccc(N4CCOCC4)nn3)n2)ccc1OC1CCOCC1` [Example Compound 88, 5-(2-{[6-(Morpholin-4-yl)pyridazin-3-yl]amino}pyrimidin-4-yl)-2-(tetrahydro-2H-pyran-4-yloxy)benzonitrile], the results for the 50% inhibitory concentration (IC50) (at IKKε (setting [2]); on IKKε (setting [3]); in assay [1] (setting [4])) were under 5 nM, under 5 nM and 250 to 1000 nM, respectively.
